Reference: patent US10618916B2, “Heterocyclic compounds as immunomodulators” (Incyte Corporation, priority 2018, dated 2020)

How the values were obtained:
[1] = test system: U2OS/PD-L1 cells and Jurkat-PD-1-SHP cells; assay: Src homology region 2 domain-containing phosphatase (SHP) assay; assay type: cell-based; details: Homo sapiens, U2OS
Experimental: Example B. Src Homology Region 2 Domain-Containing Phosphatase (SHP) Assay
U2OS/PD-L1 cells (DiscoveRx Corporation) were maintained in McCoy's 5A medium with addition of 10% FBS, 0.25 μg/ml Puromycin. After removing the culture media, the cell medium was replaced with assay medium (RPMI1640 medium with 1% FBS). The U2OS/PD-L1 cells were then added in 384-well black clear bottom assay plate (CELLCOAT® Tissue Culture Plates, Greiner Bio-One) at 5000 cells per well in 20 μL assay medium. Test compounds were prepared by serial dilution in DMSO and 125 nL compound were first transferred to the 384 REMP plate well (Thermofisher) by ECHO liquid handler (Labcyte) followed with addition of 27.5 μL assay medium. 5 μL/well compounds in the assay medium were transferred to the cell plate with 0.05% DMSO in the final assay at […]. Jurkat-PD-1-SHP cells (DiscoveRx Corporation) were cultured in RPMI1640 medium supplemented with 10% FBS, 250 μg/ml Hygromycin B, 500 μg/ml G418. After the replacement of culture media with assay medium, 5,000 Jurkat-PD-1-SHP cells in 20 μL were dispensed into each well. The assay plate was incubated at 37° C., 5% CO2 for 2 hours before 2.5 μL PathHunter reagent 1 (DiscoveRx Corporation) were added to each well. The assay plate was shaken for 1 min at 350 rpm in the dark followed with addition of 10 μL PathHunter reagent 2 (DiscoveRx Corporation). Chemiluminescent signal was recorded with TopCount reader (Perkin Elmer) after incubation at room temperature for 1 hour. Wells with DMSO were served as the positive controls and wells containing no cells were used as negative controls. IC50 determination was performed by fitting the curve of percentage of control activity versus the log of the compound concentration using the GraphPad Prism 6.0 software.

[2] = target: PD-L1 (Homo sapiens (Human), UniProt Q9NZQ7); assay: PD-L1 whole blood internalization assay; assay type: cell-based; details: 24 HR, PD-L1 expression on CD14+ cells, human interferon γ
Experimental: Example D. PD-L1 Whole Blood Internalization Assay
To determine PD-L1 internalization in human whole blood, normal human blood (Biological Specialty Corp, Colmar. Pa.) was incubated in the presence or absence of a concentration range of test compounds and 1 ng/ml human interferon γ (R&D Systems Inc. Minn. […] Blood was then stained with PD-L1 (MIH1, eBioscience; or BD Biosciences San Jose, Calif.), CD14 (Life Technologies, Carlsbad, Calif.) for 30 minutes in the dark at room temperature. Whole Blood/red cells were lysed/fixed (lysis buffer BD Biosciences) for 5 minutes at 37° C. in the dark and then centrifuged at 1600 RPM for 5 minutes. Cells were resuspended in Stain Buffer (BD Bioscience, San Jose, Calif.) and transferred into 96 well round bottom plates (Corning). Cells were gated on CD14+(BD Biosciences) and PD-L1 expression determined by mean fluorescence intensity (MFI) (BD LSRFortessa™ X-20). IC50 determination was performed by fitting the curve of compound percent inhibition versus the log of the compound concentration using the GraphPad Prism 7.0 software.

[3] = target: PD-1/PD-L1 protein/protein interaction (recombinant human PD-L1 and human PD-1) (Homo sapiens (Human), UniProt Q9NZQ7); assay: Homogeneous Time-Resolved Fluorescence (HTRF) PD-1/PD-L1 binding assay
Experimental: Example A. Homogeneous Time-Resolved Fluorescence (HTRF) PD-1/PD-L1 Binding Assay
The assays were conducted in a standard black 384-well polystyrene plate with a final volume of 20 μL. Inhibitors were first serially diluted in DMSO and then added to the plate wells before the addition of other reaction components. The final concentration of DMSO in the assay was 1%. The assays were carried out at 25° C. in the PBS buffer (pH 7.4) with 0.05% Tween-20 and 0.1% BSA. Recombinant human PD-L1 protein (19-238) with a His-tag at the C-terminus was purchased from AcroBiosystems (PD1-H5229). Recombinant human PD-1 protein (25-167) with Fc tag at the C-terminus was also purchased from AcroBiosystems (PD1-H5257). PD-L1 and PD-1 proteins were diluted in the assay buffer and 10 μL was added to the plate well. Plates were centrifuged and proteins were preincubated with inhibitors for 40 minutes. The incubation was followed by the addition of 10 μL of HTRF detection buffer supplemented with Europium cryptate-labeled anti-human IgG (PerkinElmer-AD0212) specific for Fc and anti-His antibody conjugated to SureLight®-Allophycocyanin (APC, PerkinElmer-AD0059H). After centrifugation, the plate was incubated at 25° C. for 60 min. before reading on a PHERAstar FS plate reader (665 nm/620 nm ratio). Final concentrations in the assay were—3 nM PD1, 10 nM PD-L1, 1 nM europium anti-human IgG and 20 nM anti-His-Allophycocyanin. IC50 determination was performed by fitting the curve of percent control activity versus the log of the inhibitor concentration using the GraphPad Prism 5.0 software.

[4] = test system: PD-L1 aAPC/CHO-K1 cells and Jurkat-PD-1-NFAT effector cells; assay: Nuclear factor of activated T-cells (NFAT) assay; assay type: cell-based; details: Cricetulus griseus, CHO-K1
Experimental: Example C. Nuclear Factor of Activated T-Cells (NFAT) Assay
PD-L1 aAPC/CHO-K1 cells (Promega) were maintained in F-12 medium with addition of 10% FBS, 200 μg/ml Hygromycin B, 250 μg/ml Geneticin (G418). Jurkat-PD-1-NFAT effector cells (Promega) were cultured in RPMI 1640 medium supplemented with 10% FBS, 100 μg/ml Hygromycin B, 500 μg/ml G418. The culture media of PD-L1 aAPC/CHO-K1 cells were first replaced with assay medium (RPMI1640 medium with 1% FBS). The PD-L1 aAPC/CHO-K1 cells were then added in a white 384-well white clear bottom assay plate (CELLCOAT® Tissue Culture Plates, Greiner Bio-One) at 8000 per well in 10 μL assay medium. Test compounds were prepared by serial dilution in DMSO and 0.8 μL test compounds in DMSO were first transferred to the 384 REMP plate well (Thermofisher) by PlateMate Plus (Thermofisher) followed with addition of 50 μL plating medium. 5 μL compounds in the assay medium were transferred to the cells with 0.4% DMSO in the final assay at 2 μM. After removing the culture media, 10,000 Jurkat-PD-1-NFAT effector cells in 5 μL assay medium was dispensed into each well. The assay plate was incubated at 37° C., 5% CO2 for 24 hours. After the assay plate was equilibrated to room temp for 15 minutes, 20 µL/well of Bio-Glo™ reagent (Promega) were added. After 8 minutes incubation at room temperature, luminescence was read at with Pherastar microplate reader (BMG Labtech). The fold of induction (FOI) was calculated based on the ratio of luminescence normalized to the DMSO wells within each assay plate. The maximum percentage of induction was reported based on the ratio between the highest FOI of each compound and the maximum FOI of control compound within each assay plate. Wells with DMSO were served as the negative controls and wells containing control compound with the highest FOI were used as positive controls. EC50 determination was performed by fitting the curve of percent control activity versus the log of the compound concentration using the GraphPad Prism 6.0 software.

Chain of PD-L1 (Q9NZQ7 19-290): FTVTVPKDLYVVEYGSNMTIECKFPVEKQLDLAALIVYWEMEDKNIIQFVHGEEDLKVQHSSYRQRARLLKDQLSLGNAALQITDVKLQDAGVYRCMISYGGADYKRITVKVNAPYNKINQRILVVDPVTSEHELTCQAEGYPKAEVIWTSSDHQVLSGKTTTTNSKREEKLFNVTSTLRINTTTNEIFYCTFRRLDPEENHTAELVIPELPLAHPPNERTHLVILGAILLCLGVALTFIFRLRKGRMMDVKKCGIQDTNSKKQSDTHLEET
Chain of PD-1/PD-L1 protein/protein interaction (recombinant human PD-L1 and human PD-1) (Q9NZQ7 19-238): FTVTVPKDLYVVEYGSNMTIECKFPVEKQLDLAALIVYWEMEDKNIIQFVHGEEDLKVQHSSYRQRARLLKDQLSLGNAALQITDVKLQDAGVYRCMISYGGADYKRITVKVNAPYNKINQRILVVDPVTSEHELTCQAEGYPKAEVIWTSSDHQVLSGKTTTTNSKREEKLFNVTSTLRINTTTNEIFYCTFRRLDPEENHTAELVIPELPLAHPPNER

Structure (SMILES)	IC50 [1] [nM]	IC50 [2] [nM]	IC50 [3] [nM]	EC50 [4] [nM]
Cc1c(NC(=O)c2nc3c(n2C)CCN(CCC24CCC(C(=O)O)(CC2)C4)C3)cccc1-c1cccc(NC(=O)c2nc3c(n2C)CCN(C[C@H](C)O)C3)c1Cl [Example 42, (S)-4-(2-(2-((2′-chloro-3′-(5-(2-hydroxypropyl)-1-methyl-4,5,6,7-tetrahydro-1H-imidazo[4,5-c]pyridine-2-carboxamido)-2-methyl-[1,1′-biphenyl]-3-yl)carbamoyl)-1-methyl-1,4,6,7-tetrahydro-5H-imidazo[4,5-c]pyridin-5-yl)ethyl)bicyclo[2.2.1]heptane-1-carboxylic acid]	≤ 10	10 to 100	≤ 5	10 to 100
Cc1c(NC(=O)c2nc3c(n2C)CCN(CCC24CCC(C(=O)O)(CC2)C4)C3)cccc1-c1cccc(NC(=O)c2nc3c(n2C)CCN(CC24CCC(C(=O)O)(CC2)C4)C3)c1Cl [Example 44, 4-((2-((3′-(5-(2-(4-carboxybicyclo[2.2.1]heptan-1-yl)ethyl)-1-methyl-4,5,6,7-tetrahydro-1H-imidazo[4,5-c]pyridine-2-carboxamido)-2-chloro-2′-methyl-[1,1′-biphenyl]-3-yl)carbamoyl)-1-methyl-1,4,6,7-tetrahydro-5H-imidazo[4,5-c]pyridin-5-yl)methyl)bicyclo[2.2.1]heptane-1-carboxylic acid]	≤ 10	100 to 500	≤ 5	10 to 100
Cc1c(NC(=O)c2nc3c(n2C)CCN(C[C@H](C)O)C3)cccc1-c1cccc(NC(=O)c2nc3c(n2C)CCN(CCC24CCC(C(=O)O)(CC2)C4)C3)c1Cl [Example 32, (S)-4-(2-(2-((2-chloro-3′-(5-(2-hydroxypropyl)-1-methyl-4,5,6,7-tetrahydro-1H-imidazo[4,5-c]pyridine-2-carboxamido)-2′-methyl-[1,1′-biphenyl]-3-yl)carbamoyl)-1-methyl-1,4,6,7-tetrahydro-5H-imidazo[4,5-c]pyridin-5-yl)ethyl)bicyclo[2.2.1]heptane-1-carboxylic acid]		10 to 100	≤ 5	10 to 100
CN(C)C(=O)CCCCN1CCc2c(nc(C(=O)Nc3cccc(-c4cccc(NC(=O)c5nc6c(n5C)CCN(CCC57CCC(C(=O)O)(CC5)C7)C6)c4Cl)c3Cl)n2C)C1 [Example 64, 4-(2-(2-((2,2′-dichloro-3′-(5-(5-(dimethylamino)-5-oxopentyl)-1-methyl-4,5,6,7-tetrahydro-1H-imidazo[4,5-c]pyridine-2-carboxamido)-[1,1′-biphenyl]-3-yl)carbamoyl)-1-methyl-1,4,6,7-tetrahydro-5H-imidazo[4,5-c]pyridin-5-yl)ethyl)bicyclo[2.2.1]heptane-1-carboxylic Acid]		10 to 100	≤ 5	≤ 10
Cc1c(NC(=O)c2nc3c(n2C)CCN(CCO)C3)cccc1-c1cccc(NC(=O)c2nc3c(n2C)CCN(CCC24CCC(C(=O)O)(CC2)C4)C3)c1Cl [Example 33, 4-(2-(2-((2-chloro-3′-(5-(2-hydroxyethyl)-1-methyl-4,5,6,7-tetrahydro-1H-imidazo[4,5-c]pyridine-2-carboxamido)-2′-methyl-[1,1′-biphenyl]-3-yl)carbamoyl)-1-methyl-1,4,6,7-tetrahydro-5H-imidazo[4,5-c]pyridin-5-yl)ethyl)bicyclo[2.2.1]heptane-1-carboxylic acid]		10 to 100	≤ 5	10 to 100
Cn1c(C(=O)Nc2cccc(-c3cccc(NC(=O)c4nc5c(n4C)CCN(C4CCN(C(N)=O)CC4)C5)c3Cl)c2Cl)nc2c1CCN(CCC13CCC(C(=O)O)(CC1)C3)C2 [Example 7, 4-(2-(2-((3′-(5-(1-carbamoylpiperidin-4-yl)-1-methyl-4,5,6,7-tetrahydro-1H-imidazo[4,5-c]pyridine-2-carboxamido)-2,2′-dichloro-[1,1′-biphenyl]-3-yl)carbamoyl)-1-methyl-1,4,6,7-tetrahydro-5H-imidazo[4,5-c]pyridin-5-yl)ethyl)bicyclo[2.2.1]heptane-1-carboxylic acid]		10 to 100	≤ 5	10 to 100
Cc1c(NC(=O)c2nc3c(n2C)CCN(C2CCOCC2)C3)cccc1-c1cccc(NC(=O)c2nc3c(n2C)CCN(CCC24CCC(C(=O)O)(CC2)C4)C3)c1Cl [Example 28, 4-(2-(2-((2-chloro-2′-methyl-3′-(1-methyl-5-(tetrahydro-2H-pyran-4-yl)-4,5,6,7-tetrahydro-1H-imidazo[4,5-c]pyridine-2-carboxamido)-[1,1′-biphenyl]-3-yl)carbamoyl)-1-methyl-1,4,6,7-tetrahydro-5H-imidazo[4,5-c]pyridin-5-yl)ethyl)bicyclo[2.2.1]heptane-1-carboxylic acid]		10 to 100	≤ 5	10 to 100
Cn1c(C(=O)Nc2cccc(-c3cccc(NC(=O)c4nc5c(n4C)CCN(CCC46CCC(C(=O)O)(CC4)C6)C5)c3Cl)c2Cl)nc2c1CCN(CCCCC(=O)O)C2 [Example 63, 4-(2-(2-((3′-(5-(4-carboxybutyl)-1-methyl-4,5,6,7-tetrahydro-1H-imidazo[4,5-c]pyridine-2-carboxamido)-2,2′-dichloro-[1,1′-biphenyl]-3-yl)carbamoyl)-1-methyl-1,4,6,7-tetrahydro-5H-imidazo[4,5-c]pyridin-5-yl)ethyl)bicyclo[2.2.1]heptane-1-carboxylic acid]		10 to 100	≤ 5	10 to 100
